Assay results as given in patent publication US20110045477A1, “HUMAN SKIN EXPLANT CULTURE SYSTEM AND USE THEREFOR” (priority 2009, published 2011).

Experiments:
human skin explants [1] = assay: Ki67 immunohistochemistry (cell proliferation marker) in skin explants; assay type: cell-based; details: 20 ng/ml in Medium 1, 37° C., grade 1-5, 5 = normal level prior to culture
Experimental: (§1) Skin explant cultures were established as described in Example 1, using Medium 1. Explants were incubated at 37° C. in a 5% CO2 atmosphere. Skin explants either remained untreated or were treated, in Medium 1, with TGF-β, an agent known to increase elastin production. Media were refreshed daily. After predetermined time periods, the skin explants were harvested, and processed for histological, immunohistochemical, and gene expression evaluation as follows. • 1. LUNA staining was used to document elastin fibers histologically, as described in Kligman, Am. J. of Dermatopathology, 3(2): 199-201, 1981. The grading of elastin fiber quality ranged from 1-5, when 5 represented best fiber quality. • 2. Ki67 was used as a marker for cell proliferation, using immunohistochemistry techniques with a rabbit monoclonal antibody for Ki67, purchased from Thermo Scientific (Pittsburgh, Pa.). Immunohistochemistry staining was performed according to manufacturer's instructions. The grading of Ki67 ranged from 1-5, when 5 represented normal Ki67 level in the skin sample prior to culture. • 3. Levels of elastin gene expression (mRNA levels) were evaluated by QPCR. Total RNA was extracted from skin explants using Trizol (Invitrogen, Carlsbad Calif.) according to manufacturer's instructions. […]

elastin gene expression = assay: Elastin gene expression (mRNA) by QPCR in skin explants; assay type: cell-based, human; details: 20 ng/ml
Experimental: as §1

human skin explants [2] = assay: LUNA staining of elastin fibers in skin explants; assay type: cell-based; details: 20 ng/ml in Medium 1, 37° C., grade 1-5, 5 = best fiber quality
Experimental: as §1

[3] = test system: subcutaneous adipose layer of skin explants; assay: Lipogenesis: triglyceride synthesis from C-14 acetate in subcutaneous fat of skin explants (HPTLC); assay type: cell-based, human; details: 20 μM in medium, untreated control 100%
Experimental: (§2) To examine the metabolic activity of the subcutaneous adipose layer, explant cultures were established as described in Example 1, using optimized media with 5% serum. After overnight incubation, skin explants remained untreated or were treated with 20 μM of rosiglitazone or with 50 μM of conjugated linoleic acid in the media, for the evaluation of their effect on lipogenesis and lipolysis of subcutaneous adipose layer. Explants were incubated at 37° C. in a 5% CO2 atmosphere.
For assessing lipogenesis, skin explants were cultured in medium containing 20 μM of rosiglitazone and C-14 labeled acetate for 24 hours. Subcutaneous fat was then harvested, and the levels of triglyceride were determined by HPTLC as described in (Pappas et al., JID 118 (1) 164-171, 2002).

[4] = test system: subcutaneous adipose layer of skin explants; assay: Lipolysis: glycerol released into culture media of skin explants; assay type: cell-based, human; details: 50 μM in medium, untreated control 100%
Experimental: as §2
For evaluating lipolysis, skin explants were cultured in medium containing 50 μM of conjugated linoleic acid, and culture media were collected at indicated time points. The levels of glycerol released into the media were determined using the free glycerol reagent and kit (Sigma), which was used according to manufacture instruction.

## TGF-β
Human skin explants [1]; Day 5
  Ki67 Proliferation marker (grade): 4
Human skin explants [1]; Day 7
  Ki67 Proliferation marker (grade): 4
Elastin gene expression; Day 5, untreated control normalized to 100%
  Elastin mRNA (QPCR): 369%
Elastin gene expression; Day 7, untreated control Day 5 = 100% (Day 7 control 243%)
  Elastin mRNA (QPCR): 423%
Human skin explants [2]; Day 5
  LUNA staining Elastin fibers (grade): 3
Human skin explants [2]; Day 7
  LUNA staining Elastin fibers (grade): 4

## CN(CCOc1ccc(CC2SC(=O)NC2=O)cc1)c1ccccn1 (centres unmarked) [Rosiglitazone, rosiglitazone]
[3]
  Triglyceride synthesis at 24 hr (lipogenesis): 240-270%

## conjugated linoleic acid
[4]
  Glyceral release at day 3 (lipolysis): 140%
